Experimental findings from ChEMBL document CHEMBL1649464, “Galleria mellonella as a model system to study Acinetobacter baumannii pathogenesis and therapeutics” (2009) are described below.

Active and inactive are the calls of the source. No cut-off for these calls is given here.

The test system of experiment [1] is Acinetobacter baumannii. Put plainly: Antibacterial activity against Acinetobacter baumannii A9844 infected in Galleria mellonella caterpillar assessed as prolonged survival rate at 50 mg/kg administered as single dose. In kind it is functional, organism-based. Also on record: dose 50 mg/kg.
Experiment [2] relates to Acinetobacter baumannii. The experiment can be described thus: Antibacterial activity against Acinetobacter baumannii A9844 infected in Galleria mellonella caterpillar assessed as prolonged survival rate at 150 mg/kg administered as single dose. In kind it is functional, organism-based. Also on record: dose 150 mg/kg.
Experiment [3] deals with Acinetobacter baumannii. The experiment can be described thus: Antibacterial activity against carbapenem-resistant Acinetobacter baumannii A3587 infected in Galleria mellonella caterpillar assessed as prolonged survival rate at 60 mg/kg administered as single dose. In kind it is functional.
The subject of experiment [4] is Acinetobacter baumannii. The experiment can be described thus: Antibacterial activity against Acinetobacter baumannii A9844 infected in Galleria mellonella caterpillar assessed as prolonged survival rate at 60 mg/kg administered as single dose. In kind it is functional, organism-based. Details: dose 60 mg/kg.
In experiment [5] the test system is Acinetobacter baumannii. The experiment can be described thus: Antibacterial activity against Acinetobacter baumannii A9844 infected in Galleria mellonella caterpillar assessed as prolonged survival rate at 6 mg/kg administered as single dose. In kind it is functional, organism-based. Details: dose 6 mg/kg.

With `CN(C)[C@@H]1C(O)=C(C(N)=O)C(=O)[C@@]2(O)C(O)=C3C(=O)c4c(O)cccc4[C@@](C)(O)[C@H]3C[C@@H]12`, in experiment [1], the outcome was inactive. For the compound `CO/N=C(\C(=O)N[C@@H]1C(=O)N2C(C(=O)O)=C(COC(C)=O)CS[C@H]12)c1csc(N)n1`, the result in experiment [2] was inactive.

For the compound `C[C@@H](O)[C@H]1C(=O)N2C(C(=O)O)=C(S[C@@H]3CN[C@H](C(=O)N(C)C)C3)[C@H](C)[C@H]12` [MEROPENEM], the Activity result in experiment [3] is recorded as “<=12%”. Besides, the outcome in experiment [4] was Active. Turning to GENTAMICIN, the outcome in experiment [5] was Active.
